The test system of the assay is CEM cells HIV-1 protection, formazan growth assay. Nature of the assay: NCI AIDS Antiviral Assay. The following applies: for pIC50: measured here: growth of uninfected CEM cells. The essentials: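 Human CEM cells, uninfected and HIV-1-infected, exposed to five drug concentrations; growth measured by soluble formazan assay and scored as percent protection from infection, with protecting compounds retested.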

pEC50, pIC50: −log10 of the molar value. The source made the active and inactive calls.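 Rule for the calls: active = compounds giving half or more protection of infected cells from virus-caused growth loss, again on retest; inactive = the rest.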 Where a SMILES comes first, the peptide text is derived from it. [ ]: non-standard residue; d: D form. The star is where a group is joined. ξ: configuration not given here. ξF = NC(Cc1ccccc1)C(=O)O; Cbz = O=C(OCc1ccccc1)*

Usually pEC50 stands for the negative decadic logarithm of the EC50, by convention in mol/L. For orientation: pIC50 means −log10 of the IC50, conventionally taken in molar units. A lower pIC50 goes with a large IC50. Consider `Cc1nc2c(=S)nc[nH]c2n1Nc1ccccc1`, for which the pEC50 is < 3.70 and the pIC50 is 4.14.
On to `O=C1C2=Cc3ccccc3OC2(O)Oc2cc(O)ccc21` (centres undefined), for which the pEC50 is < 3.70 and the pIC50 was 4.31.
Taken in the same sequence, the figures for `COc1ccc(C2SC(N)=Nc3c2c(C)nn3C(=O)c2ccncc2)cc1OC` (centres undefined) were 4.31 and 3.77.
Consider `CC(C)/C(Cl)=N\OC(=O)Nc1ccc(C#N)cc1`, for which the pEC50 is < 3.70 and the pIC50 is 5.37.
Regarding `COc1ccc(/C=C/C(=N\NC(=O)c2ccccc2)c2sc(Nc3ccc([N+](=O)[O-])cc3)nc2C)cc1OC`, the pEC50 is < 4.88 and the pIC50 was < 4.88.
In the case of `COc1cc2c(cc1OC)C13CCN4CC5=CCOC6CC(=O)N2C1C6C5C4C3` (centres undefined) (tested in a mixture with another compound), the pEC50 was < 3.68.
Turning to `O=S(=O)(N(c1ccc(Cl)cn1)S(=O)(=O)C(F)(F)F)C(F)(F)F`, the pEC50 is < 3.70 and the pIC50 was < 3.70.
As to `Cc1nnc2cc(C(=O)O)c3ccccc3n2c1=O`, the pEC50 is < 3.70 and the pIC50 was < 3.70.
In the case of `CCCCOC/N=C(/N)NC#N`, the pEC50 was < 3.28 and the pIC50 was < 3.28.
For `CCCCN(CCO)Cc1cc(Nc2c3ccccc3nc3ccccc23)ccc1O`, the pEC50 was < 4.20 and the pIC50 was 4.69.
As for `N#CC(C(=O)CCC(=O)Nc1ccc(Cl)cc1)c1ccccc1Cl` (centres undefined), the pEC50 is < 3.73 and the pIC50 is < 3.73.
As to `O=[N+]([O-])c1cc(Cl)ccc1S(=O)(=O)c1cc(Cl)cc2c1NCCC2`, the pEC50 was < 3.70 and the pIC50 was 4.49.
Turning to `COc1ccc(N2C(=O)C3c4[nH]c5c(C)cccc5c4C4CCC(c5ccccc5)CC4C3C2=O)cc1` (centres undefined), the pEC50 was < 3.70 and the negative-log IC50 (pIC50) is 4.22.
On to `CCOc1ccc2c(ccc(/C=C\c3cc(C)c4cccnc4c3O)[n+]2C)c1`, for which the pEC50 is < 4.28 and the pIC50 is 6.02.
Taken in the same sequence, the figures for `CCCCN1C(=O)C(=O)N(c2ccccc2C(F)(F)F)C1=O` were < 3.70 and 3.80.
On to `CC1=NN(c2ccccc2)C(=O)C1N=Nc1ccc(S(=O)(=O)Nc2ncccn2)cc1` (centres undefined), for which the pEC50 is < 3.70 and the pIC50 is 4.44.
In the case of `COC1CC2C3/C(=N/Nc4ccc([N+](=O)[O-])cc4[N+](=O)[O-])CCC2(C)C3C1` (centres undefined), the result was inactive.
With `C=C1OC2OC(C)C(NC(=O)OCC(Cl)(Cl)Cl)C(OC(C)=O)C2O1` (centres undefined), the pEC50 is < 3.63 and the pIC50 was < 3.63.
For the molecule `O=C(NCCCl)N1CCC(CN=c2cc3n(-c4ccc(Cl)cc4)c4ccccc4nc-3cc2Nc2ccc(Cl)cc2)CC1`, the pEC50 is < 4.00 and the pIC50 was 4.77.
Taken in the same sequence, the figures for `O=C(Cc1ccccc1)NN1C(=O)C(Cl)C1c1cc(Br)cc(Br)c1O` (centres undefined) were < 4.69 and 4.94.
Taken in the same sequence, the figures for `O=C1C=C(c2c(-c3ccccc3)[nH]c3ccccc23)C(=O)N1c1ccccc1` were < 3.70 and 4.81.
The like results for `COc1ccccc1NC(=O)C(=O)C(C(=O)c1ccccc1F)C1OC(=O)c2ccccc21` (centres undefined) were, in that order, < 3.54 and 4.68.
As to `CC(C)(C)OC(=O)N(CCCCN(CCCNC(=O)C(F)(F)F)C(=O)OC(C)(C)C)CCCNC(=O)C(F)(F)F`, the result was inactive.
On to `O=C1C(c2[nH]c3ccc(S(=O)(=O)O)cc3c2O)=Nc2ccc(S(=O)(=O)O)cc21`, for which the pEC50 was < 3.70 and the pIC50 is < 3.70.
For the molecule `COC1OCC(N)C(O)C1O` (centres undefined), the outcome was inactive.
For the molecule `Cc1cc(C)n2nc3c4ccsc4ncc3c2n1`, the pEC50 is < 4.34 and the pIC50 is < 4.34.
Regarding `O=C1NC2c3c(I)sc(I)c3C(O)C2O1` (centres undefined), the pEC50 is < 3.70 and the pIC50 is 3.85.
The like results for `Nc1nc(Cl)cc(OCC2(CO)CCCC2)n1` were, in that order, < 3.70 and 3.96.
The like results for `O=C1CCc2c(Cl)sc(Cl)c21` were, in that order, < 3.48 and 3.82.
In the case of `ON=C1CCC(c2ccccc2)CC1` (centres undefined), the outcome was inactive.
The same measure, in the same setting: the result for `Cc1cc2nc3c(C(OC4OC(CO)C(O)C(O)C4O)C(O)CO)nn(-c4ccccc4)c3nc2cc1C` (centres undefined) reads “inactive”.
For `CCN(CC)Cc1ccccc1CC(=O)N1c2ccccc2C(=O)Nc2cccnc21`, the pEC50 was < 3.70 and the pIC50 is < 3.70.
In the case of `COC(=O)c1c(C)cccc1C1CN=NC12Cc1cc(C)c(C)cc1C2=O` (centres undefined), the pEC50 is < 3.70 and the pIC50 was 3.92.
Taken in the same sequence, the figures for `CCOC(=O)CNC(=O)C(Cc1ccccc1)NC(=O)OCc1ccccc1` (centres undefined) (Cbz-[ξF]-Gly-OEt) were < 3.70 and 3.72.
With `OC(c1nc2ccccc2s1)(C(F)(F)F)C(F)(F)F`, the result was inactive.
In the case of `COC(=O)C(C(=O)C(=O)NC1=C(Cl)C(=O)c2ccccc2C1=O)c1csc(-n2nc(-c3ccccc3)cc2-c2ccccc2)n1` (centres undefined), the pEC50 is < 4.95 and the pIC50 is < 4.95.
In the case of `COc1ccc2nc3cc(Cl)ccc3c(NCCCN(C)CCCNc3ccc4ncn5c6ccccc6c(=O)c3c45)c2c1`, the pEC50 was < 6.60 and the pIC50 was 6.78.
Consider `Cc1cn(C2CCC(COP(=O)(OCOC(=O)C(C)(C)C)OCOC(=O)C(C)(C)C)O2)c(=O)[nH]c1=O` (centres undefined), for which the result was active.
On the same count and under the same terms, the result for `CC12OC(=O)C(C#N)C1(C)C1C(=O)CCCC12` (centres undefined) reads “inactive”.
As to `CC(C)(C)c1c(C(C)(C)C)c(=O)c1=O`, the pEC50 was < 3.70 and the pIC50 is < 3.70.
With `Cc1nc2c(=O)n(-c3ccccc3)c3ccccc3c2o1`, the pEC50 was < 3.70 and the pIC50 was 3.84.
`CCCCCCCCN(CCCCCCCC)/N=C/c1c2c(O)c3c(O)c(C)c4c(c3c1O)C(=O)C(C)(O/C=C/C(OC)C(C)C(OC(C)=O)C(C)C(O)C(C)C(O)C(C)/C=C/C=C(C)C(=O)N2)O4` (centres undefined): the outcome was inactive.
With `COc1ccc(C2OCC3OC(n4cc(C)c(=O)[nH]c4=O)CC3N2O)cc1` (centres undefined), the pEC50 is < 3.70 and the pIC50 is < 3.70.
Consider `CC1=[N+]([O-])C(C)(C)N(N=O)C1(C)C`, for which the pEC50 is < 3.70 and the pIC50 was < 3.70.
Consider `S=C(N/N=C\C(=N/NC(=S)N1CCCCC1)c1ccccc1)N1CCCCC1`, for which the pEC50 was < 3.70 and the pIC50 is 5.42.
The like results for `[O-][n+]1onc2c1/C(=N/O)CCC2` were, in that order, < 3.70 and < 3.70.
Consider `CCC1Sc2cc(OC)cc3[nH]c(=S)n(c23)C1=O` (centres undefined), for which the pEC50 is 3.90 and the pIC50 was 3.83.
Taken in the same sequence, the figures for `C(#CC1(Nc2ccccc2)CCN(Cc2ccccc2)CC1)C1(Nc2ccccc2)CCN(Cc2ccccc2)CC1` were < 4.00 and 4.13.
The like results for `COC(=O)NC12CC3CC(C(C)O1)C2N(Cc1ccccc1)C3` (centres undefined) were, in that order, < 3.70 and < 3.70.
Taken in the same sequence, the figures for `COC1/C=C/OC2(C)Oc3c(C)c(O)c4c(O)c(c(/C=N/N5CCN(Cc6ccccc6)CC5)c(O)c4c3C2=O)NC(=O)C(C)=C/C=C/C(C)C(O)C(C)C(O)C(C)C(OC(C)=O)C1C` (centres undefined) were < 3.70 and 4.99.
Take `Cc1ccc(C)c2c1OC(=O)C1CNCOC21` (centres undefined): the pEC50 is < 4.30 and the pIC50 was < 4.30.
On to `COc1ccc(-c2c(C#N)c(S)n(NS(=O)(=O)c3ccccc3)c(=O)c2C#N)cc1`, for which the pEC50 is < 3.70 and the pIC50 is 4.90.
Taken in the same sequence, the figures for `COc1ccc(C)c2c1N[C@](C)([C@]1(C)Nc3c(OC)ccc(C)c3C1=O)C2=O` were < 4.00 and < 4.00.
As to `CC/C=C/c1cc2c(c3[nH]ccc13)[C@@H](C)CC2C` (some centres undefined) (tested in a mixture with another compound), the result was inactive.
Turning to `COc1cc2c(cc1OC)C(=O)C(C1=C(SC(=N)N)C(=O)c3cc(OC)c(OC)cc31)C2` (centres undefined), the pEC50 is < 4.55 and the pIC50 was < 4.55.
Turning to `Clc1ccc(OCc2nnc(CCCCCCCCc3nnc(COc4ccc(Cl)cc4)o3)o2)cc1`, the pEC50 is < 3.70 and the pIC50 was 4.05.
On to `O=c1c2cc3c(cc2c2cccc4c2n1CCC4)OCO3`, for which the result was inactive.
The same measure, in the same setting: the result for `COc1ccc(/C(C)=N/Nc2ccc([N+](=O)[O-])cc2[N+](=O)[O-])cc1` reads “inactive”.
Consider `CC1=NN(C(=O)c2ccccc2O)C(=O)/C1=C/c1ccccc1O`, for which the pEC50 is < 4.51 and the negative logarithm of the IC50 (pIC50) was 7.21.
Taken in the same sequence, the figures for `CCOC(=O)c1nnc(-c2ccccc2)nc1Cl` were < 3.70 and < 3.70.
The like results for `CC(C)=CCCC1(C)C=Cc2c(cc(O)c3c(=O)c4cccc(O)c4oc23)O1` (centres undefined) were, in that order, < 3.70 and 4.47.
`O=C1NC(=O)C(=Cc2ccc(Cl)cc2)C(=O)N1`: the pEC50 is < 4.12, the result was inactive and the pIC50 is < 4.12.
For the molecule `CCOC(=O)CN1C(=O)NC(C)(c2ccccc2)C1=O` (centres undefined), the pEC50 is < 3.70 and the pIC50 was < 3.70.
As for `CC1CN=C(N(Cc2ccccc2)C(=O)Nc2ccc(Cl)c(Cl)c2)S1` (centres undefined), the pEC50 is < 3.70 and the pIC50 is 4.17.
Taken in the same sequence, the figures for `CCOC(=O)CN=c1nc(SC)sc2c(C(=O)OCC)nc(Sc3ccccc3)n12` were < 4.22 and 4.97.
The like results for `NCCN.O=N[O-].O=N[O-].O=N[O-].O=N[O-].[Co+3].[K+]` were, in that order, < 3.14 and 3.66.
Take `Cc1nc2cccc(F)c2c(=O)n1C1CCCCNC1=O` (centres undefined): the pEC50 is < 3.70 and the negative-log IC50 (pIC50) was < 3.70.
`COC(=O)/C(=N\NC(C)(C)C)C(C(=O)C(=O)Nc1cc(C)ccc1C)c1nc2ccccc2[nH]c1=O` (centres undefined): the result was inactive.
With `O=S(Cc1cc2c(cc1Br)OCO2)c1ccccc1` (centres undefined), the pEC50 was < 4.40 and the pIC50 is < 4.40.
In the case of `CC(=O)/C(=C/N1C(=O)CC(=O)NC1=S)C(=O)Nc1ccccc1`, the pEC50 was < 3.70 and the pIC50 was < 3.70.
Regarding `COc1ccc2[nH]c(Br)c(CCNC(C)=O)c2c1`, the pEC50 is < 3.70 and the pIC50 is < 3.70.

The record behind these values is PubChem BioAssay AID179 (DTP/NCI, 2004).
